A word on the IC50: it is the concentration at which inhibition is half-maximal. Read a low IC50 as higher potency.

In the first assay the target is T1, Axl (Homo sapiens, UniProt P30530).
T1 construct: endogenous in cells; host or cells: HeLa
T1 sequence (P30530 26-894): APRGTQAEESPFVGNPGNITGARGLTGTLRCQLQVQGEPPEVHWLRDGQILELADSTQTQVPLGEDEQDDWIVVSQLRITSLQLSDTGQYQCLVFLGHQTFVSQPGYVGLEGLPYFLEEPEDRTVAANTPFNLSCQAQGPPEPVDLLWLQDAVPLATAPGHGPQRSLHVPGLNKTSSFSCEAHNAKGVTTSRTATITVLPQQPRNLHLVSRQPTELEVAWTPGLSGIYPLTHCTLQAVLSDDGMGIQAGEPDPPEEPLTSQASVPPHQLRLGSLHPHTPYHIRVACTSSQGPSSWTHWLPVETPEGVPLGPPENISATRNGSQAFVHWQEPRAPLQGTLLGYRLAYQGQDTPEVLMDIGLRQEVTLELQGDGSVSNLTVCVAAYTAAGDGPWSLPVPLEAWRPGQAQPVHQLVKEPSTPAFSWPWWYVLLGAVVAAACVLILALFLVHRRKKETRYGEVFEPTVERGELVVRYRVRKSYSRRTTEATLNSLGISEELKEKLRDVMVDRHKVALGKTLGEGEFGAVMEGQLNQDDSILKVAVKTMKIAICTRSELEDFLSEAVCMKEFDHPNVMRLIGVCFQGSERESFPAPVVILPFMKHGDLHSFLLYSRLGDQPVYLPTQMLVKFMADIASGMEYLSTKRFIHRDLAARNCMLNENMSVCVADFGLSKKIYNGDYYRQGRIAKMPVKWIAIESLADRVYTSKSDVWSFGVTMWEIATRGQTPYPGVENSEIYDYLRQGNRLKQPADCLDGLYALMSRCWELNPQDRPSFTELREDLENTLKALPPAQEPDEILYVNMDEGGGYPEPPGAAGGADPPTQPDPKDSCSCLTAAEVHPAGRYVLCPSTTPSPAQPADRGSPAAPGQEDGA
In words: Phospho-AKT in-cell Western assay (inhibition of Axl activity). Type of assay: cell-based. Conditions: Table 1, formula (Ia); Hela cells, Axl antibody cross-linking stimulation, phospho-Akt chemiluminescence normalized to relative cell number. The gist of the method:
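HeLa cells were starved 24 h in 0.5% FCS with Axl/Fc 500 ng/mL, pre-treated with compound for 1 h at 37 °C, then stimulated 5 min by anti-Axl antibody cross-linking. Fixed cells were probed for phospho-AKT with an HRP-linked in-cell Western and read by chemiluminescence.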
`CNC(=O)[C@H]1C[C@H]2C[C@H](C2(C)C)[C@@]1(C)Nc1nc(Nc2ccc(N3CCC(N4CCN(C)CC4)CC3)c(F)c2)ncc1Cl` [Compound 31, (1R,2R,3S,5R)-2-(5-chloro-2-(3-fluoro-4-(4-(4-methylpiperazin-1-yl)piperidin-1-yl)phenylamino)pyrimidin-4-ylamino)-N,2,6,6-tetramethylbicyclo[3.1.1]heptane-3-carboxamide]: the IC50 was less than 1000 nM.

Molecule `CNC(=O)[C@H]1C[C@H]2C[C@H](C2(C)C)[C@@]1(C)Nc1nc(Nc2ccc(OCC(C)(C)N3CCCC3)cc2)ncc1Cl` [Compound 8, (1R,2R,3S,5R)-2-(5-chloro-2-(4-(2-methyl-2-(pyrrolidin-1-yl)propoxy)phenylamino)pyrimidin-4-ylamino)-N,2,6,6-tetramethylbicyclo[3.1.1]heptane-3-carboxamide] came in with a half-inhibitory concentration (IC50) of less than 1000 nM.

For `CCN1CCN(c2cc(Nc3ncc(Cl)c(N[C@@]4(C)[C@@H](C(=O)NC)C[C@H]5C[C@@H]4C5(C)C)n3)ccc2Cl)CC1` [Compound 15, (1R,2R,3S,5R)-2-(5-chloro-2-(4-chloro-3-(4-ethylpiperazin-1-yl)phenylamino)pyrimidin-4-ylamino)-N,2,6,6-tetramethylbicyclo[3.1.1]heptane-3-carboxamide], the IC50 lay within 1000 to 10000 nM.

The molecule `CNC(=O)[C@H]1C[C@H]2C[C@H](C2(C)C)[C@@]1(C)Nc1nc(Nc2ccc(OCCN(C)C3CCCC3)cc2)ncc1Cl` [Compound 33, (1R,2R,3S,5R)-2-(5-chloro-2-(4-(2-((cyclopentyl)(methyl)amino)ethoxy)phenylamino)pyrimidin-4-ylamino)-N,2,6,6-tetramethylbicyclo[3.1.1]heptane-3-carboxamide] showed an IC50 of less than 1000 nM.

In the case of `CNC(=O)[C@H]1C[C@H]2C[C@H](C2(C)C)[C@@]1(C)Nc1nc(Nc2ccc(OCCN3CCCC3)cc2)ncc1F` [Compound 40, (1R,2R,3S,5R)-2-(5-fluoro-2-(4-(2-(pyrrolidin-1-yl)ethoxy)phenylamino)pyrimidin-4-ylamino)-N,2,6,6-tetramethylbicyclo[3.1.1]heptane-3-carboxamide], the IC50 is 1000 to 10000 nM.

Consider `CN1CCN(c2ccc(Nc3nccc(N[C@@]4(CCO)[C@@H](C(N)=O)C[C@H]5C[C@@H]4C5(C)C)n3)cc2F)CC1` [Compound 19, (1R,2R,3S,5R)-2-(2-(3-fluoro-4-(4-methylpiperazin-1-yl)phenylamino)pyrimidin-4-ylamino)-2-(2-hydroxyethyl)-6,6-dimethylbicyclo[3.1.1]heptane-3-carboxamide], for which the 50% inhibitory concentration (IC50) was more than 20000 nM.

In turn, `CNC(=O)[C@H]1C[C@H]2C[C@H](C2(C)C)[C@@]1(C)Nc1nc(Nc2ccc(N3CCC(F)(F)CC3)c(F)c2)ncc1F` [Compound 35, (1R,2R,3S,5R)-2-(5-fluoro-2-(3-fluoro-4-(4,4-difluoropiperidin-1-yl)phenylamino)pyrimidin-4-ylamino)-N,2,6,6-tetramethylbicyclo[3.1.1]heptane-3-carboxamide] returned an IC50 of more than 20000 nM.

In turn, `CNC(=O)[C@H]1C[C@H]2C[C@H](C2(C)C)[C@@]1(C)Nc1nc(Nc2ccc(N3CCN(CCO)CC3)cc2)ncc1Cl` [Compound 41, (1R,2R,3S,5R)-2-(5-chloro-2-(4-(4-(2-hydroxyethyl)piperazin-1-yl)phenylamino)pyrimidin-4-ylamino)-N,2,6,6-tetramethylbicyclo[3.1.1]heptane-3-carboxamide] showed a half-inhibitory concentration (IC50) of less than 1000 nM.

Molecule `CNC(=O)[C@H]1C[C@H]2C[C@H](C2(C)C)[C@@]1(C)Nc1nc(Nc2ccc(N3CCC(N4CCC(C)CC4)CC3)c(F)c2)ncc1F` [Compound 55, (1R,2R,3S,5R)-2-(5-fluoro-2-(3-fluoro-4-(4-(4-methylpiperidin-1-yl)piperidin-1-yl)phenylamino)pyrimidin-4-ylamino)-N,2,6,6-tetramethylbicyclo[3.1.1]heptane-3-carboxamide] showed an IC50 of less than 1000 nM.

Molecule `CNC(=O)[C@H]1C[C@H]2C[C@H](C2(C)C)[C@@]1(C)Nc1nc(Nc2ccc(N3CCC(N4CCC(C)CC4)CC3)c(F)c2)ncc1Cl` [Compound 54, (1R,2R,3S,5R)-2-(5-chloro-2-(3-fluoro-4-(4-(4-methylpiperidin-1-yl)piperidin-1-yl)phenylamino)pyrimidin-4-ylamino)-N,2,6,6-tetramethylbicyclo[3.1.1]heptane-3-carboxamide] yielded a half-maximal inhibitory concentration (IC50) of less than 1000 nM.

As to `CNC(=O)[C@H]1C[C@H]2C[C@H](C2(C)C)[C@@]1(C)Nc1nc(Nc2ccc(N3CCN(c4ccc(F)cc4)CC3)cc2)ncc1Cl` [Compound 11, (1R,2R,3S,5R)-2-(5-chloro-2-(4-(4-(4-fluorophenyl)piperazin-1-yl)phenylamino)pyrimidin-4-ylamino)-N,2,6,6-tetramethylbicyclo[3.1.1]heptane-3-carboxamide], the half-maximal inhibitory concentration (IC50) is more than 20000 nM.

The assay is the same for the next values; noted with them: Table 2, formula (Ib); Hela cells, Axl antibody cross-linking stimulation, phospho-Akt chemiluminescence normalized to relative cell number.
In turn, `CNC(=O)[C@@H]1C[C@@H]2C[C@@H](C2(C)C)[C@]1(C)Nc1nc(Nc2ccc(OCCN3CCCC3)c(F)c2)ncc1Cl` [Compound 23, (1S,2S,3R,5S)-2-(5-chloro-2-(3-fluoro-4-(2-(pyrrolidin-1-yl)ethoxy)phenylamino)pyrimidin-4-ylamino)-N,2,6,6-tetramethylbicyclo[3.1.1]heptane-3-carboxamide] gave an IC50 of 1000 to 10000 nM.

The same assay, now with this note: Table 3, formula (Ic); Hela cells, Axl antibody cross-linking stimulation, phospho-Akt chemiluminescence normalized to relative cell number.
The molecule `CN(C)CCN1CCOc2cc(Nc3ncc(Cl)c(N[C@@]4(C)[C@@H](C(=O)NCCO)C[C@H]5C[C@@H]4C5(C)C)n3)ccc21` [Compound 60, (1R,2R,3S,5R)-2-(5-chloro-2-((3,4-dihydro-4-(2-(dimethylamino)ethyl)-2H-benzo[b][1,4]oxazin-7-yl)amino)pyrimidin-4-ylamino)-N-(2-hydroxyethyl)-2,6,6-trimethylbicyclo[3.1.1]heptane-3-carboxamide] gave an IC50 of less than 1000 nM.

For the molecule `CCN(CC)CCN1CCOc2cc(Nc3ncc(C(F)(F)F)c(N[C@@]4(C)[C@@H](C(=O)NC)C[C@H]5C[C@@H]4C5(C)C)n3)ccc21` [Compound 53, (1R,2R,3S,5R)-2-(5-trifluoromethyl-2-((3,4-dihydro-4-(2-(diethylamino)ethyl)-2H-benzo[b][1,4]oxazin-7-yl)-amino)pyrimidin-4-ylamino)-N,2,6,6-tetramethylbicyclo[3.1.1]heptane-3-carboxamide], the half-inhibitory concentration (IC50) was less than 1000 nM.

In the case of `CNC(=O)[C@H]1C[C@H]2C[C@H](C2(C)C)[C@@]1(C)Nc1nc(Nc2ccc3c(c2)OCCN3CCN(C)C)ncc1Cl` [Compound 47, (1R,2R,3S,5R)-2-(5-chloro-2-((3,4-dihydro-4-(2-(dimethylamino)ethyl)-2H-benzo[b][1,4]oxazin-7-yl)amino)pyrimidin-4-ylamino)-N,2,6,6-tetramethylbicyclo[3.1.1]heptane-3-carboxamide], the IC50 is less than 1000 nM.

In the case of `CC(C)NC(=O)[C@H]1C[C@H]2C[C@H](C2(C)C)[C@@]1(C)Nc1nc(Nc2ccc3c(c2)OCCN3CCN(C)C)ncc1Cl` [Compound 64, (1R,2R,3S,5R)-2-(5-chloro-2-((3,4-dihydro-4-(2-(dimethylamino)ethyl)-2H-benzo[b][1,4]oxazin-7-yl)amino)pyrimidin-4-ylamino)-N-(1-methylethyl)-2,6,6-trimethylbicyclo[3.1.1]heptane-3-carboxamide], the half-inhibitory concentration (IC50) was less than 1000 nM.

Still in this assay, the particulars now being: Table 4, formula (Id); Hela cells, Axl antibody cross-linking stimulation, phospho-Akt chemiluminescence normalized to relative cell number.
As to `CNC(=O)[C@H]1C[C@H]2C[C@H](C2(C)C)[C@@]1(C)Nc1nc(Nc2ccc3c(c2)CCN3CCN(C)C)ncc1Cl` [Compound 27, (1R,2R,3S,5R)-2-(5-chloro-2-(1-(2-(dimethylamino)ethyl)indolin-5-ylamino)pyrimidin-4-ylamino)-N,2,6,6-tetramethylbicyclo[3.1.1]heptane-3-carboxamide], the concentration for half-maximal inhibition (IC50) is less than 1000 nM.

These data come from patent publication US8563559B2 (Rigel Pharmaceuticals, Inc., priority 2006, dated 2013).
